# Earlier results as cited in publication PMC8066102, “Metabolic Profiles of New Unsymmetrical Bisacridine Antitumor Agents in Electrochemical and Enzymatic Noncellular Systems and in Tumor Cells” (Pharmaceuticals, 2021).
# Set-up: method as in PMID 2810109, PMID 12920162
# Details: after UGT2B7 glucuronidation; cited from earlier work
smiles,measurement,value
CN1CC[C@]23c4c5ccc(O)c4O[C@H]2[C@@H](O[C@@H]2O[C@H](C(=O)O)[C@@H](O)[C@H](O)[C@H]2O)C=C[C@H]3[C@H]1C5 [morphine-6-glucuronide],analgesic activity relative to morphine,650 fold
